Test results published in PMC8427973, “Regulation of the HTRA2 Protease Activity by an Inhibitory Antibody-Derived Peptide Ligand and the Influence on HTRA2-Specific Protein Interaction Networks in Retinal Tissues” (Biomedicines, 2021).

Test system: recombinant 6xHis-tag HTRA2 and its protein interaction partners in homogenized porcine retina
Assay: Co-immunoprecipitation (Co-IP) of HTRA2 protein interaction partners, quantitative LC-MS/MS (iBAQ, volcano plot vs CTRL beads)
Parameters: species or system house swine (Sus scrofa)
Settings: 2 µg HTRA2 + 10 µg compound, n = 3, vs CTRL beads
Method: The retina extraction and homogenization were performed as already described in previous publications. The use of animal by-products of house swine for scientific research purposes was approved by the Kreisverwaltung Mainz-Bingen in Germany (Identification Code: DE 07 315 0006 21, approved on 13 January 2014). In brief, retinal tissues were extracted from freshly removed porcine eye bulbs (house swine, Sus scrofa domestica Linnaeus, n = 30) provided by the local slaughterhouses (Landmetzgerei Harth, Stadecken-Elsheim, Germany). Afterwards, the retinal tissues were homogenized in 2 mL screw cap microtubes filled with 1.4/2.8 mm ceramic beads and 1 mL Tissue Protein Extraction Reagent (T-PER, Thermo Fisher Scientific, Rockford, IL, USA) using a Percellys® 24 homogenizer (VWR International GmbH, Darmstadt, Germany). The homogenized retinal samples were then centrifuged at 14,000× g for 15 min at 4 °C. The protein-containing supernatant was exchanged in a 100 µL phosphate-buffered saline (PBS) using a 3 kDa Amicon® filtration unit (Millipore, Billerica, MA, USA) and, prior to this, was extensively washed in order to completely remove traces of the T-PER buffer. Afterwards, the samples were pooled and the protein concentration was determined using a Pierce Bicinchoninic Acid (BCA) Protein Assay Kit (Thermo Fisher Scientific, Rockford, IL, USA) according to the manufacturer’s protocol, which provided 5 mg aliquots for further analysis.
The recombinant protein HTRA2 with a C-terminal 6xHis-tag motif (Novoprotein Scientific INC., Summit, NJ, USA) and 40 μL HisPurTM Ni-NTA magnetic beads (Thermo Fisher Scientific, Rockford, IL, USA) were spiked into 5 mg homogenized porcine retina. The experiment comprised of four groups: control homogenate (CTRL group), homogenate with 2 μg recombinant HTRA2 (HTRA2 group), homogenate with 2 μg recombinant HTRA2 and 10 μg UCF-101 (UCF-101 group), and homogenate with 2 μg recombinant HTRA2 and 10 μg synthetic CDR peptide (CDR group). The Co-IP of the recombinant HTRA2 and the enrichment of the respective interaction partners was performed with three independent biological replicates for each group (CTRL, HTRA2, UCF-101, and CDR group). After incubation at 4 °C overnight, the 6xHis-tagged protein HTRA2 with the bounded protein interaction partners (co-immunoprecipitation) was isolated with the previously added HisPurTM Ni-NTA magnetic beads (Thermo Fisher Scientific, Rockford, IL, USA) using a magnetic stand. Each bead group was washed twice with 400 μL PBS and the bounded HTRA2 including the protein interaction partners were eluted by pH shift. The protein concentration of each eluate fraction was determined as described above. Afterwards, 50 μg of each eluate fraction was evaporated using a speed vacuum concentrator (SpeedVac) (Eppendorf, Hamburg, Germany) for 45 min at 30 °C and was stored afterwards at −20 °C.
The protein eluate fractions of each group (50 μg; n = 3 biological replicates per group) were separated by 1D SDS PAGE on 10-well NuPAGE® 12% Bis-Tris gels using NuPAGE™ MOPS SDS Running Buffer 20X (Thermo Fisher Scientific, Rockford, IL, USA). The 1D SDS PAGE was performed with the XCell SureLock^TM Mini-Cell Electrophoresis System (Thermo Fisher Scientific, Rockford, IL, USA) under denatured and reduced conditions, as already described in previous publications. The protein separation was performed for 2 h at 4 °C using 150 V, and then the gels were stained with the Novex Colloidal Blue Staining Kit (Thermo Fisher Scientific, Rockford, IL, USA) according to the manufacturer’s protocol. The next day, the gels were destained overnight and scanned using a DGP-9042 scanner (Brother Industries, Nagoya, Japan) at 600 dpi. In-gel trypsin digestion was performed as already described in previous publications. In brief, each protein lane was divided into 17 slices and was subsequently cut into small pieces. […]

For O=C1C(=Cc2ccc(-c3ccccc3[N+](=O)[O-])o2)C(=O)N(c2ccccc2)C(=S)N1c1ccccc1 [UCF-101, reference compound], the “FGF2 (Fibroblast growth factor 2) as significant interaction partner of HTRA2” value (HTRA2 alone: -) was “√ (Proteins fulfilled filtering criteria (p < 0.01; log2 fold change > 1.5))”, the “FTH1 (Ferritin heavy chain) as significant interaction partner of HTRA2” value (HTRA2 alone: -) was “√ (Proteins fulfilled filtering criteria (p < 0.01; log2 fold change > 1.5))” and the “GTF2F2 (General transcription factor IIF subunit 2) as significant interaction partner of HTRA2” value (HTRA2 alone: -) was “√ (Proteins fulfilled filtering criteria (p < 0.01; log2 fold change > 1.5))”. For the same molecule, the “NAPG (Gamma-soluble NSF attachment protein) as significant interaction partner of HTRA2” value (HTRA2 alone: -) was “- (Proteins failed to fulfill the filtering criteria (p > 0.01; log2 fold change < 1.5))”, the “PDZD11 (PDZ domain-containing protein 11) as significant interaction partner of HTRA2” value (HTRA2 alone: -) was “√ (Proteins fulfilled filtering criteria (p < 0.01; log2 fold change > 1.5))” and the “PGRMC1 (Membrane-associated progesterone receptor component 1) as significant interaction partner of HTRA2” value (HTRA2 alone: -) was “√ (Proteins fulfilled filtering criteria (p < 0.01; log2 fold change > 1.5))”. For the same molecule, the “PLRG1 (Pleiotropic regulator 1) as significant interaction partner of HTRA2” value (HTRA2 alone: -) was “- (Proteins failed to fulfill the filtering criteria (p > 0.01; log2 fold change < 1.5))”, the “POLR2E (DNA-directed RNA polymerases I, II, and III subunit RPABC1) as significant interaction partner of HTRA2” value (HTRA2 alone: -) was “- (Proteins failed to fulfill the filtering criteria (p > 0.01; log2 fold change < 1.5))” and the “PPA1 (Inorganic pyrophosphatase) as significant interaction partner of HTRA2” value (HTRA2 alone: -) was “√ (Proteins fulfilled filtering criteria (p < 0.01; log2 fold change > 1.5))”. The “SFRP1 (Secreted frizzled-related protein 1) as significant interaction partner of HTRA2” value (HTRA2 alone: -) was “- (Proteins failed to fulfill the filtering criteria (p > 0.01; log2 fold change < 1.5))”, the “TUBA1C (Tubulin alpha-1C chain) as significant interaction partner of HTRA2” value (HTRA2 alone: -) was “- (Proteins failed to fulfill the filtering criteria (p > 0.01; log2 fold change < 1.5))” and the “UBE2N (Ubiquitin-conjugating enzyme E2 N) as significant interaction partner of HTRA2” value (HTRA2 alone: -) was “√ (Proteins fulfilled filtering criteria (p < 0.01; log2 fold change > 1.5))”. For the same molecule, the “CDC42 (Cell division control protein 42 homolog) as significant interaction partner of HTRA2” value (HTRA2 alone: n.d.) was “√ (Proteins fulfilled filtering criteria (p < 0.01; log2 fold change > 1.5))”, the “COPE (Coatomer subunit epsilon) as significant interaction partner of HTRA2” value (HTRA2 alone: n.d.) was “√ (Proteins fulfilled filtering criteria (p < 0.01; log2 fold change > 1.5))” and the “MRPL2 (39S ribosomal protein L2, mitochondrial) as significant interaction partner of HTRA2” value (HTRA2 alone: n.d.) was “- (Proteins failed to fulfill the filtering criteria (p > 0.01; log2 fold change < 1.5))”. For the same molecule, the “SNX3 (Sorting nexin-3) as significant interaction partner of HTRA2” value (HTRA2 alone: n.d.) was “√ (Proteins fulfilled filtering criteria (p < 0.01; log2 fold change > 1.5))”, the “SOWAHA (Ankyrin repeat domain-containing protein SOWAHA) as significant interaction partner of HTRA2” value (HTRA2 alone: n.d.) was “- (Proteins failed to fulfill the filtering criteria (p > 0.01; log2 fold change < 1.5))” and the “TIMM13 (Mitochondrial import inner membrane translocase subunit Tim13) as significant interaction partner of HTRA2” value (HTRA2 alone: n.d.) was “√ (Proteins fulfilled filtering criteria (p < 0.01; log2 fold change > 1.5))”. For the same molecule, the “TUBB8 (Tubulin beta-8 chain) as significant interaction partner of HTRA2” value (HTRA2 alone: n.d.) was “- (Proteins failed to fulfill the filtering criteria (p > 0.01; log2 fold change < 1.5))”, the “ANK2 (Ankyrin-2) as significant interaction partner of HTRA2” value (HTRA2 alone: √) was “- (Proteins failed to fulfill the filtering criteria (p > 0.01; log2 fold change < 1.5))” and the “AP2A1 (AP-2 complex subunit alpha-1) as significant interaction partner of HTRA2” value (HTRA2 alone: √) was “- (Proteins failed to fulfill the filtering criteria (p > 0.01; log2 fold change < 1.5))”. The “AP3D1 (AP-3 complex subunit delta-1) as significant interaction partner of HTRA2” value (HTRA2 alone: √) was “- (Proteins failed to fulfill the filtering criteria (p > 0.01; log2 fold change < 1.5))”, the “AUH (Methylglutaconyl-CoA hydratase, mitochondrial) as significant interaction partner of HTRA2” value (HTRA2 alone: √) was “- (Proteins failed to fulfill the filtering criteria (p > 0.01; log2 fold change < 1.5))” and the “CS (Citrate synthase, mitochondrial) as significant interaction partner of HTRA2” value (HTRA2 alone: √) was “- (Proteins failed to fulfill the filtering criteria (p > 0.01; log2 fold change < 1.5))”. The “CSTB (Cystatin-B) as significant interaction partner of HTRA2” value (HTRA2 alone: √) was “- (Proteins failed to fulfill the filtering criteria (p > 0.01; log2 fold change < 1.5))”, the “DNAJA3 (DnaJ homolog subfamily A member 3, mitochondrial) as significant interaction partner of HTRA2” value (HTRA2 alone: √) was “- (Proteins failed to fulfill the filtering criteria (p > 0.01; log2 fold change < 1.5))” and the “DTD1 (D-aminoacyl-tRNA deacylase 1) as significant interaction partner of HTRA2” value (HTRA2 alone: √) was “- (Proteins failed to fulfill the filtering criteria (p > 0.01; log2 fold change < 1.5))”. For the same molecule, the “EIF2S3 (Eukaryotic translation initiation factor 2 subunit 3) as significant interaction partner of HTRA2” value (HTRA2 alone: √) was “- (Proteins failed to fulfill the filtering criteria (p > 0.01; log2 fold change < 1.5))”, the “FAM30A (Putative uncharacterized protein FAM30A) as significant interaction partner of HTRA2” value (HTRA2 alone: √) was “- (Proteins failed to fulfill the filtering criteria (p > 0.01; log2 fold change < 1.5))” and the “FLNA (Filamin-A) as significant interaction partner of HTRA2” value (HTRA2 alone: √) was “- (Proteins failed to fulfill the filtering criteria (p > 0.01; log2 fold change < 1.5))”. For the same molecule, the “GDI1 (Rab GDP dissociation inhibitor alpha) as significant interaction partner of HTRA2” value (HTRA2 alone: √) was “- (Proteins failed to fulfill the filtering criteria (p > 0.01; log2 fold change < 1.5))”, the “GLO1 (Lactoylglutathione lyase) as significant interaction partner of HTRA2” value (HTRA2 alone: √) was “- (Proteins failed to fulfill the filtering criteria (p > 0.01; log2 fold change < 1.5))” and the “GNL1 (Guanine nucleotide-binding protein-like 1) as significant interaction partner of HTRA2” value (HTRA2 alone: √) was “- (Proteins failed to fulfill the filtering criteria (p > 0.01; log2 fold change < 1.5))”. The “HAGH (Hydroxyacylglutathione hydrolase, mitochondrial) as significant interaction partner of HTRA2” value (HTRA2 alone: √) was “- (Proteins failed to fulfill the filtering criteria (p > 0.01; log2 fold change < 1.5))”, the “HTRA2 (Serine protease HTRA2, mitochondrial; target protein) enriched” value (HTRA2 alone: √) was “√ (Proteins fulfilled filtering criteria (p < 0.01; log2 fold change > 1.5))” and the “HYOU1 (Hypoxia up-regulated protein 1) as significant interaction partner of HTRA2” value (HTRA2 alone: √) was “- (Proteins failed to fulfill the filtering criteria (p > 0.01; log2 fold change < 1.5))”. For the same molecule, the “ME2 (NAD-dependent malic enzyme, mitochondrial) as significant interaction partner of HTRA2” value (HTRA2 alone: √) was “- (Proteins failed to fulfill the filtering criteria (p > 0.01; log2 fold change < 1.5))”, the “NCKAP1 (Nck-associated protein 1) as significant interaction partner of HTRA2” value (HTRA2 alone: √) was “- (Proteins failed to fulfill the filtering criteria (p > 0.01; log2 fold change < 1.5))” and the “PACS1 (Phosphofurin acidic cluster sorting protein 1) as significant interaction partner of HTRA2” value (HTRA2 alone: √) was “- (Proteins failed to fulfill the filtering criteria (p > 0.01; log2 fold change < 1.5))”. The “POTEE (POTE ankyrin domain family member E) as significant interaction partner of HTRA2” value (HTRA2 alone: √) was “- (Proteins failed to fulfill the filtering criteria (p > 0.01; log2 fold change < 1.5))”, the “PTGES3 (Prostaglandin E synthase 3) as significant interaction partner of HTRA2” value (HTRA2 alone: √) was “√ (Proteins fulfilled filtering criteria (p < 0.01; log2 fold change > 1.5))” and the “SHMT2 (Serine hydroxymethyltransferase, mitochondrial) as significant interaction partner of HTRA2” value (HTRA2 alone: √) was “- (Proteins failed to fulfill the filtering criteria (p > 0.01; log2 fold change < 1.5))”. The “SPTBN1 (Spectrin beta chain, non-erythrocytic 1) as significant interaction partner of HTRA2” value (HTRA2 alone: √) was “- (Proteins failed to fulfill the filtering criteria (p > 0.01; log2 fold change < 1.5))” and the “UBE2V1 (Ubiquitin-conjugating enzyme E2 variant 1) as significant interaction partner of HTRA2” value (HTRA2 alone: √) was “√ (Proteins fulfilled filtering criteria (p < 0.01; log2 fold change > 1.5))”.
